Target: T1, mutant G12C K-RAS (Homo sapiens, UniProt P01116, G12C)
T1 construct: made in house; host or cells: E. coli BL21
Experiment: covalent adduct formation (CAF) with mutant G12C K-RAS
Format: binding
Details: Table 2, Pyrimidone Core-Morpholine Substituted; after 60 minutes at 10 micromolar
Method: Embodiments disclosed herein are further illustrated by the following examples in Tables 1-4 and the Examples hereinbelow. The Tables indicate the compound number, structure, the observed mass spectral molecular weight peak, and covalent adduct formation (CAF) with a mutant G12C K-RAS after 60 minutes at a concentration of 10 micromolar.

Row | SMILES | % CAF (60 min)
1 | C=CC(=O)N1CCN(c2nc(=O)n3c4c(c(-c5c(O)cccc5F)c(Cl)cc24)OC[C@@H]3CO)[C@@H](C)C1 (single isomer, unassigned) [Example 24] | 0%

Same assay, conditions: Table 6; 10 μM, 1 h

Row | SMILES | % CAF @ 10 μM,1 h
2 | C=CC(=O)N1C[C@H](C)N(c2nc(=O)n3c4c(c(-c5c(O)cccc5F)c(Cl)cc24)OC[C@@H]3Cn2ccnc2)C[C@H]1C (atropisomer, axis not shown) [Example 248, (3S)-3-((1H-imidazol-1-yl)methyl)-7-((2S,5R)-4-acryloyl-2,5-dimethylpiperazin-1-yl)-9-chloro-10-(2-fluoro-6-hydroxyphenyl)-2H-[1,4]oxazino[2,3,4-ij]quinazolin-5(3H)-one] | 2.3%
3 | C=CC(=O)N1C[C@H](C)N(c2nc(=O)n3c4c(c(-c5c(O)cccc5F)c(Cl)cc24)OC[C@@H]3CCCN2CCOCC2)C[C@H]1C (atropisomer, axis not shown) [Example 265, (3S,10S)-7-((2S,5R)-4-acryloyl-2,5-dimethylpiperazin-1-yl)-9-chloro-10-(2-fluoro-6-hydroxyphenyl)-3-(3-morpholinopropyl)-2,3-dihydro-5H-[1,4]oxazino[2,3,4-ij]quinazolin-5-one] | 97.5%
4 | C=CC(=O)N1C[C@H](C)N(c2nc(=O)n3c4c(c(-c5cccc6ccccc56)c(Cl)cc24)OC[C@H]3Cn2cccn2)C[C@H]1C (atropisomer, axis not shown) [Example 292, (3R,10S)-3-((1H-pyrazol-1-yl)methyl)-7-((2S,5R)-4-acryloyl-2,5-dimethylpiperazin-1-yl)-9-chloro-10-(naphthalen-1-yl)-2,3-dihydro-5H-[1,4]oxazino[2,3,4-ij]quinazolin-5-one] | 95%
5 | C=CC(=O)N1C[C@H](C)N(c2nc(=O)n3c4c(c(-c5cccc6ccccc56)c(Cl)cc24)OC[C@H]3CN2CCN(C)CC2)C[C@H]1C (atropisomer, axis not shown) [Example 294, (3R,10R)-7-((2S,5R)-4-acryloyl-2,5-dimethylpiperazin-1-yl)-9-chloro-3-((4-methylpiperazin-1-yl)methyl)-10-(naphthalen-1-yl)-2H-[1,4]oxazino[2,3,4-ij]quinazolin-5(3H)-one] | 75.2%
6 | C=CC(=O)N1C[C@H](C)N(c2nc(=O)n3c4c(c(-c5cccc6ccccc56)c(Cl)cc24)OC[C@H]3CN2CCN(C)CC2)C[C@H]1C (atropisomer, axis not shown) [Example 295, (3R,10R)-7-((2S,5R)-4-acryloyl-2,5-dimethylpiperazin-1-yl)-9-chloro-3-((4-methylpiperazin-1-yl)methyl)-10-(naphthalen-1-yl)-2H-[1,4]oxazino[2,3,4-ij]quinazolin-5(3H)-one] | 58.4%
7 | C=CC(=O)N1C[C@H](C)N(c2nc(=O)n3c4c(c(-c5c(O)cccc5F)c(Cl)cc24)OC[C@H]3CN2CCN(C)CC2)C[C@H]1C (atropisomer, axis not shown) [Example 300, (3R,10R)-7-((2S,5R)-4-acryloyl-2,5-dimethylpiperazin-1-yl)-9-chloro-10-(2-fluoro-6-hydroxyphenyl)-3-((4-methylpiperazin-1-yl)methyl)-2,3-dihydro-5H-[1,4]oxazino[2,3,4-ij]quinazolin-5-one] | 0%
8 | C=CC(=O)N1C[C@H](C)N(c2nc(=O)n3c4c(c(-c5c(O)cccc5F)c(Cl)cc24)OC[C@H]3CN2CCN(C)CC2)C[C@H]1C (atropisomer, axis not shown) [Example 301, (3R,10S)-7-((2S,5R)-4-acryloyl-2,5-dimethylpiperazin-1-yl)-9-chloro-10-(2-fluoro-6-hydroxyphenyl)-3-((4-methylpiperazin-1-yl)methyl)-2,3-dihydro-5H-[1,4]oxazino[2,3,4-ij]quinazolin-5-one] | 52.1%
9 | C=CC(=O)N1C[C@H](C)N(c2nc(=O)n3c4c(c(-c5c(O)cccc5F)c(Cl)cc24)OC[C@@H]3CN2CCN(C)CC2)C[C@H]1C (atropisomer, axis not shown) [Example 305, (3S,10R)-7-((2S,5R)-4-acryloyl-2,5-dimethylpiperazin-1-yl)-9-chloro-10-(2-fluoro-6-hydroxyphenyl)-3-((4-methylpiperazin-1-yl)methyl)-2,3-dihydro-5H-[1,4]oxazino[2,3,4-ij]quinazolin-5-one] | 0%
10 | C=CC(=O)N1C[C@H](C)N(c2nc(=O)n3c4c(c(-c5cccc6ccccc56)c(Cl)cc24)OC[C@H]3Cn2cccn2)C[C@H]1C (atropisomer, axis not shown) [Example 306, (3R,10R)-3-((1H-pyrazol-1-yl)methyl)-7-((2S,5R)-4-acryloyl-2,5-dimethylpiperazin-1-yl)-9-chloro-10-(naphthalen-1-yl)-2,3-dihydro-5H-[1,4]oxazino[2,3,4-ij]quinazolin-5-one] | 73.5%
11 | C=CC(=O)N1C[C@H](C)N(c2nc(=O)n3c4c(c(-c5cccc6ccccc56)c(Cl)cc24)OC[C@@H]3CN2CCN(C)CC2)C[C@H]1C (atropisomer, axis not shown) [Example 308, (3S,10S)-7-((2S,5R)-4-acryloyl-2,5-dimethylpiperazin-1-yl)-9-chloro-3-((4-methylpiperazin-1-yl)methyl)-10-(naphthalen-1-yl)-2,3-dihydro-5H-[1,4]oxazino[2,3,4-ij]quinazolin-5-one] | 22.8%
12 | C=CC(=O)N1C[C@H](C)N(c2nc(=O)n3c4c(c(-c5cccc6ccccc56)c(Cl)cc24)OC[C@@H]3CN2CCN(C)CC2)C[C@H]1C (atropisomer, axis not shown) [Example 309, (3S,10R)-7-((2S,5R)-4-acryloyl-2,5-dimethylpiperazin-1-yl)-9-chloro-3-((4-methylpiperazin-1-yl)methyl)-10-(naphthalen-1-yl)-2,3-dihydro-5H-[1,4]oxazino[2,3,4-ij]quinazolin-5-one] | 94.4%
13 | C=CC(=O)N1C[C@H](C)N(c2nc(=O)n3c4c(c(-c5c(O)cccc5F)c(Cl)cc24)OC[C@@H]3CN2CCN(C)CC2)C[C@H]1C (atropisomer, axis not shown) [Example 314, (3S,10S)-7-((2S,5R)-4-acryloyl-2,5-dimethylpiperazin-1-yl)-9-chloro-10-(2-fluoro-6-hydroxyphenyl)-3-((4-methylpiperazin-1-yl)methyl)-2,3-dihydro-5H-[1,4]oxazino[2,3,4-ij]quinazolin-5-one] | 74.8%
14 | C=CC(=O)N1C[C@H](C)N(c2nc(=O)n3c4c(c(-c5cccc6ccccc56)c(Cl)cc24)OC[C@H]3Cn2ccnc2)C[C@H]1C (atropisomer, axis not shown) [Example 317, (3R,10R)-3-((1H-imidazol-1-yl)methyl)-7-((2S,5R)-4-acryloyl-2,5-dimethylpiperazin-1-yl)-9-chloro-10-(naphthalen-1-yl)-2,3-dihydro-5H-[1,4]oxazino[2,3,4-ij]quinazolin-5-one] | 72.8%
15 | C=CC(=O)N1C[C@H](C)N(c2nc(=O)n3c4c(c(-c5cccc6ccccc56)c(Cl)cc24)OC[C@H]3Cn2ccnc2)C[C@H]1C (atropisomer, axis not shown) [Example 318, (3R,10S)-3-((1H-imidazol-1-yl)methyl)-7-((2S,5R)-4-acryloyl-2,5-dimethylpiperazin-1-yl)-9-chloro-10-(naphthalen-1-yl)-2,3-dihydro-5H-[1,4]oxazino[2,3,4-ij]quinazolin-5-one] | 70.6%
16 | C=CC(=O)N1C[C@H](C)N(c2nc(=O)n3c4c(c(-c5c(C)ccc6[nH]ncc56)c(Cl)cc24)OC[C@H]3Cn2cccn2)C[C@H]1C (atropisomer, axis not shown) [Example 319, (3R,10S)-3-((1H-pyrazol-1-yl)methyl)-7-((2S,5R)-4-acryloyl-2,5-dimethylpiperazin-1-yl)-9-chloro-10-(5-methyl-1H-indazol-4-yl)-2,3-dihydro-5H-[1,4]oxazino[2,3,4-ij]quinazolin-5-one] | 0%
17 | C=CC(=O)N1C[C@H](C)N(c2nc(=O)n3c4c(c(-c5c(C)ccc6[nH]ncc56)c(Cl)cc24)OC[C@H]3Cn2cccn2)C[C@H]1C (atropisomer, axis not shown) [Example 320, (3R,10R)-3-((1H-pyrazol-1-yl)methyl)-7-((2S,5R)-4-acryloyl-2,5-dimethylpiperazin-1-yl)-9-chloro-10-(5-methyl-1H-indazol-4-yl)-2,3-dihydro-5H-[1,4]oxazino[2,3,4-ij]quinazolin-5-one] | 94.2%
18 | C=CC(=O)N1C[C@H](C)N(c2nc(=O)n3c4c(c(-c5cccc6ccccc56)c(Cl)cc24)OC[C@H]3CCCN2C[C@@H]3C[C@H]2CO3)C[C@H]1C (atropisomer, axis not shown) [Example 322, (3R,10S)-3-(3-((1S,4S)-2-oxa-5-azabicyclo[2.2.1]heptan-5-yl)propyl)-7-((2S,5R)-4-acryloyl-2,5-dimethylpiperazin-1-yl)-9-chloro-10-(naphthalen-1-yl)-2,3-dihydro-5H-[1,4]oxazino[2,3,4-ij]quinazolin-5-one] | 78.5%
19 | C=CC(=O)N1C[C@H](C)N(c2nc(=O)n3c4c(c(-c5c(C)ccc6[nH]ncc56)c(Cl)cc24)OC[C@H]3CCCN2C[C@@H]3C[C@H]2CO3)C[C@H]1C (atropisomer, axis not shown) [Example 325, (3R,10S)-3-(3-((1S,4S)-2-oxa-5-azabicyclo[2.2.1]heptan-5-yl)propyl)-7-((2S,5R)-4-acryloyl-2,5-dimethylpiperazin-1-yl)-9-chloro-10-(5-methyl-1H-indazol-4-yl)-2,3-dihydro-5H-[1,4]oxazino[2,3,4-ij]quinazolin-5-one] | 0%
20 | C=CC(=O)N1C[C@H](C)N(c2nc(=O)n3c4c(c(-c5c(C)ccc6[nH]ncc56)c(Cl)cc24)OC[C@H]3CCCN2C[C@@H]3C[C@H]2CO3)C[C@H]1C (atropisomer, axis not shown) [Example 326, (3R,10R)-3-(3-((1S,4S)-2-oxa-5-azabicyclo[2.2.1]heptan-5-yl)propyl)-7-((2S,5R)-4-acryloyl-2,5-dimethylpiperazin-1-yl)-9-chloro-10-(5-methyl-1H-indazol-4-yl)-2,3-dihydro-5H-[1,4]oxazino[2,3,4-ij]quinazolin-5-one] | 94.2%
